This is an account of results in article PMC6273342, “Cytotoxic Alkaloids from the Stem of Xylopia laevigata” (Molecules, 2016).

Where two headings read alike, the source gives them in different places.

Series [1] has as its system HL-60 (human promyelocytic leukemia). Nature of the series: Alamar Blue cytotoxicity assay, HL-60. The series is classed as cell-based. Particulars: Homo sapiens, HL-60, Alamar Blue, 72 h incubation, read-out: IC50 HL60. On the technique in general: Alamar Blue is a resazurin reagent that responds to reducing activity.
Protocol: (§2) B16-F10, HepG2, K562 and HL-60 tumor cell lines were kindly donated by Hospital A.C. […] Cells were maintained in RPMI 1640 medium (Gibco-BRL, Gaithersburg, MD, USA) with 10% fetal bovine serum (Cultilab, Campinas, Brazil), 2 mM L-glutamine (Vetec Química Fina, Duque de Caxias, Brazil) and 50 μg/mL gentamycin (Novafarma, Anápolis, Brazil). Adherent cells were collected by treatment with 0.25% trypsin-EDTA solution (Gibco-BRL). All cell lines were cultured in flasks at 37 °C in 5% CO2 and sub-cultured every 3–4 days to maintain exponential growth. All cell lines were tested for mycoplasma using a Mycoplasma Stain Kit (Sigma-Aldrich, St. Louis, MO, USA) to confirm that the cells were free from contamination.
(§3) Cell viability was quantified using the Alamar Blue assay, according to Ahmed et al. [23]. Cells were placed in 96-well plates for all experiments (0.7 × 10^5 cells/mL for adherent cells or 0.3 × 10^6 cells/mL for suspended cells in 100 μL of medium). After 24 h, the alkaloids (in a range of eight different concentrations varying from 0.19 to 25 μg/mL) were dissolved in dimethyl sulfoxide (DMSO, Sigma-Aldrich Co.), and the solution was added to each well and incubated for 72 h. […] Negative controls received the vehicle that was used for diluting the alkaloids (0.5% DMSO). Four (for cell lines) or 24 h (for PBMCs) before the end of incubation, 20 μL of a stock solution (0.312 mg/mL) of the Alamar Blue (resazurin, Sigma-Aldrich Co.) was added to each well. The absorbance at 570 nm and 600 nm was measured using a SpectraMax 190 Microplate Reader (Molecular Devices, Sunnyvale, CA, USA), and the drug effect was quantified as the percentage of control absorbance.
Series [2] concerns peripheral blood mononuclear cells (PBMCs). Description: Alamar Blue cytotoxicity assay, non-tumor PBMCs. The format is cell-based. Particulars: Homo sapiens, PBMC, 72 h incubation, ConA-stimulated PBMCs. Here is the method:
Heparinized blood was collected from 20- to 35-year-old, healthy non-smokers who had not taken any drugs for at least 15 days prior to sampling, and the peripheral blood mononuclear cells (PBMCs) were isolated using a Ficoll density gradient in a Ficoll-Paque Plus (GE Healthcare Bio-Sciences AB, Uppsala, Sweden). PBMCs were washed and resuspended at a concentration of 0.3 × 10^6 cells/mL in RPMI 1640 medium with 20% fetal bovine serum, 2 mM L-glutamine and 50 μg/mL gentamycin at 37 °C with 5% CO2. Concanavalin A (ConA, Sigma-Aldrich Co.) was used as a mitogen to trigger cell division in T-lymphocytes. ConA (10 μg/mL) was added at the beginning of culture, and the cells were treated with the test compounds after 24 h. Cell viability was examined using a trypan blue exclusion assay for all experiments. Over 90% of the cells were viable at the beginning of the culture. The Research Ethics Committee of the Oswaldo Cruz Foundation (Salvador, Bahia, Brazil) approved the experimental protocol (#031019/2013). All participants signed a written informed consent to participate in the study.

A further series deals with B16-F10 (mouse melanoma). Description: Alamar Blue cytotoxicity assay, B16-F10. The series is classed as cell-based. Particulars: 72 h incubation. From the text:
(§1) Camargo, São Paulo, Brazil.

The subject of series [3] is tumor cell lines B16-F10, HepG2, K562 and HL-60. Nature of the series: Alamar Blue cytotoxicity assay, summary over the tumor cell lines tested. Particulars: 72 h, read-out: IC50 in at least one of the tumor cell lines tested.
Protocol: as §2, §3
For series [4], the system named is K562 (human chronic myelocytic leukemia). Description: Alamar Blue cytotoxicity assay, K562. Particulars: 72 h incubation. The format is cell-based.
Text: as §1

Series [5] relates to HepG2 (human hepatocellular carcinoma). Nature of the series: Alamar Blue cytotoxicity assay, HepG2. The format is cell-based. Particulars: 72 h incubation.
Text: as §1

A short description of series [6]: Alamar Blue cytotoxicity assay, summary over the tumor cell lines tested. Particulars: mouse (B16-F10); human (HepG2, K562, HL-60).
Protocol: as §2, §3

Regarding `COc1cc(O)c2c(c1)C[C@@H]1NCCc3cc4c(c-2c31)OCO4` [(+)-Calycinine, (+)-calycinine], the IC50 in series [1] is 18.6 µg/mL; in series [1] (value in brackets), 59.6 µM; in series [2], above 25 µg/mL; with B16-F10 (mouse melanoma), 22.2 µg/mL; in the series on B16-F10 (mouse melanoma) (value in brackets), 71 µM; in series [3], below 20 µg/mL. Further, the IC50 in series [4] and in series [5] was above 25 µg/mL throughout.

`COc1ccc(CC2c3cc(O)c(OC)cc3CCN2C)cc1O` (single isomer, unassigned; (+)) [(+)-Reticuline, (+)-reticuline]: the IC50 in series [1] is 23.8 µg/mL; in series [1] (value in brackets), 72.1 µM; in series [2], above 25 µg/mL; in the series with B16-F10 (mouse melanoma) it was above 25 µg/mL; in series [3] it was below 20 µg/mL; in series [4] it was above 25 µg/mL. For the same compound, the IC50 was 15.3 µg/mL in series [5] and 46.5 µM in series [5] (value in brackets).

Consider `COc1cc2c(cc1O)C[C@@H]1NCCc3cc(OC)c(OC)c-2c31` [(+)-Laurotetanine, (+)-laurotetanine], for which the IC50 (in series [1]; in series [2]; in the series with B16-F10 (mouse melanoma); in series [4]; in series [5]) was above 25 µg/mL each time. For the same compound, in series [6], the IC50 at 72 h was above 25 µg/mL.

For `COc1cc2c(cc1O)CC1c3cc(OC)c(OC)cc3CCN1C2` (single isomer, unassigned; (-)) [(−)-Corytenchine, (−)-corytenchine], the IC50 (in series [1]; in series [2]; with B16-F10 (mouse melanoma); in series [4]; in series [5]) was above 25 µg/mL each time. In addition, the IC50 at 72 h in series [6] is above 25 µg/mL.

In the case of `COc1cc2c(cc1O)CC1c3c(cc(OC)c(OC)c3-2)CCN1C` (single isomer, unassigned; (+)) [(+)-N-Methyllaurotetanine, (+)-N-methyllaurotetanine], the concentration for half-maximal inhibition (IC50) (in series [1]; in series [2]; in the series with B16-F10 (mouse melanoma); in series [4]; in series [5]) was above 25 µg/mL each time. In series [6], this compound came in with an IC50 at 72 h above 25 µg/mL.

Regarding `COc1cc2c(cc1OC)-c1c(OC)c(OC)c(OC)c3c1C(C2)NCC3` (single isomer, unassigned; (+)) [(+)-Norpurpureine, (+)-norpurpureine], the IC50 amounted to 10.1 µg/mL in series [1]; 27.2 µM in series [1] (value in brackets); 17.9 µg/mL in series [2]; 48.2 µM in series [2] (value in brackets); 21.1 µg/mL with B16-F10 (mouse melanoma); 56.6 µM with B16-F10 (mouse melanoma) (value in brackets). Moreover, the IC50 in series [3] is below 20 µg/mL; in series [4], 16.7 µg/mL; in series [4] (value in brackets), 44.9 µM; in series [5] it was above 25 µg/mL.

Consider `COc1cc2c(cc1O)CCN1Cc3cc(OC)c(OC)cc3C[C@@H]21` [(+)-Discretine, (+)-discretine], for which the IC50 in series [1] is 13 µg/mL; in series [1] (value in brackets), 37.9 µM; in series [2] it was above 25 µg/mL; in the series with B16-F10 (mouse melanoma), 16.1 µg/mL; in the series with B16-F10 (mouse melanoma) (value in brackets), 47.2 µM; in series [3], below 20 µg/mL. Moreover, the IC50 was found to be 14.8 µg/mL in series [4], 43.4 µM in series [4] (value in brackets), 7.89 µg/mL in series [5] and 23.1 µM in series [5] (value in brackets).

Turning to `COc1cc2c(cc1OC)CN1CCc3cc(OC)c(OC)cc3[C@@H]1C2` [(−)-Xylopinine, (−)-xylopinine], the IC50 (in series [1]; in series [2]; in the series on B16-F10 (mouse melanoma); in series [4]; in series [5]) was above 25 µg/mL throughout. This compound came in with an IC50 at 72 h in series [6] above 25 µg/mL.

Turning to `COc1cc2c(cc1OC)-c1c(OC)c(OC)cc3c1[C@H](C2)N(C)CC3` [(+)-Glaucine, (+)-glaucine], the IC50 (in series [1]; in series [2]; in the series with B16-F10 (mouse melanoma); in series [4]; in series [5]) was above 25 µg/mL throughout. Moreover, the IC50 at 72 h in series [6] was above 25 µg/mL.

As for `c1ccc2c(c1)C[C@H]1NCCc3cc4c(c-2c31)OCO4` [(+)-Anonaine, (+)-anonaine], the IC50 in series [1] was 10.1 µg/mL; in series [1] (value in brackets) it was 37.9 µM; in series [2] it was above 25 µg/mL; in the series on B16-F10 (mouse melanoma), 18.8 µg/mL; with B16-F10 (mouse melanoma) (value in brackets), 70.7 µM; in series [3] it was below 20 µg/mL. Moreover, the half-maximal inhibitory concentration (IC50) turned out to be 10.6 µg/mL in series [4], 39.9 µM in series [4] (value in brackets), 14 µg/mL in series [5] and 52.8 µM in series [5] (value in brackets).

Turning to `COc1cc2c(cc1O)CCN1Cc3c(ccc(O)c3OC)CC21` (single isomer, unassigned; (+)) [(+)-Discretamine, (+)-discretamine], the IC50 was 10.1 µg/mL in series [1]; 30.8 µM in series [1] (value in brackets); above 25 µg/mL in series [2]; 18.8 µg/mL in the series with B16-F10 (mouse melanoma); 57.3 µM in the series on B16-F10 (mouse melanoma) (value in brackets); below 20 µg/mL in series [3]. Further, the IC50 is 10.6 µg/mL in series [4], 32.4 µM in series [4] (value in brackets), 14 µg/mL in series [5] and 42.8 µM in series [5] (value in brackets).

As for `CN1CCc2cc3c(c4c2[C@H]1Cc1ccccc1-4)OCO3` [(−)-Roemerine, (−)-roemerine], the IC50 (in series [1]; in series [2]; in the series with B16-F10 (mouse melanoma); in series [4]; in series [5]) was above 25 µg/mL throughout. This compound registered an IC50 at 72 h in series [6] above 25 µg/mL.

In the case of `COC1=C[C@]23CCN(C)[C@H](Cc4cc(OC)c(O)cc42)C3=CC1=O` [(+)-Flavinantine, (+)-flavinantine], the IC50 (in series [1]; in series [2]; in the series on B16-F10 (mouse melanoma); in series [4]; in series [5]) was above 25 µg/mL throughout. Moreover, the IC50 at 72 h in series [6] is above 25 µg/mL.

Take `COc1cc2c(cc1OC)-c1c(OC)c(OC)cc3ccnc(c13)C2=O` [Oxoglaucine, oxoglaucine]: the IC50 in series [1] was 5.9 µg/mL; in series [1] (value in brackets) it was 16.8 µM; in series [2], 10.2 µg/mL; in series [2] (value in brackets) it was 29.1 µM; in the series on B16-F10 (mouse melanoma) it was 19.1 µg/mL; in the series with B16-F10 (mouse melanoma) (value in brackets) it was 54.4 µM. The IC50 is below 20 µg/mL in series [3], 12.5 µg/mL in series [4], 35.5 µM in series [4] (value in brackets) and above 25 µg/mL in series [5].

As usually defined, the IC50 is the midpoint of a concentration-inhibition curve.
